Laboratory results: ChEMBL document CHEMBL3217683, “Matched triplicate design sets in the optimisation of glucokinase activators maximising medicinal chemistry information content” (Medchemcomm, 2013)

What was measured:
Hexokinase-4 = target: T1, Hexokinase-4 (Homo sapiens, UniProt P35557); assay: Activity at glucokinase (unknown origin)
T1 sequence (P35557 whole entry): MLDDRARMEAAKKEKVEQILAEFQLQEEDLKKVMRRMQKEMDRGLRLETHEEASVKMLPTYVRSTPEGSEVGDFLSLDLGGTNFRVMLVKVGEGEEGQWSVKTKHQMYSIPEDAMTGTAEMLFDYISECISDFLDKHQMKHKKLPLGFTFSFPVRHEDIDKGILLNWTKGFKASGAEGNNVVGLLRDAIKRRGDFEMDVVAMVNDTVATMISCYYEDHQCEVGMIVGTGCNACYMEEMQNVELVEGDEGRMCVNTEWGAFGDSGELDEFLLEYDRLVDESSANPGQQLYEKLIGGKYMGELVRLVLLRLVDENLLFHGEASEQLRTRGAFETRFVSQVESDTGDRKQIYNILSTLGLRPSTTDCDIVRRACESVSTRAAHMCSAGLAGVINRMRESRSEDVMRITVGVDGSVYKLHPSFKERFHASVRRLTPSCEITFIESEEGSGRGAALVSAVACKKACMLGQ

[1] = Lipophilicity, log D of the compound; format: physicochemical; details: octanol/water
[2] = target: Voltage-gated inwardly rectifying potassium channel KCNH2 (Homo sapiens, UniProt Q12809); assay: Inhibition of human ERG
[3] = Clearance in rat; format: ADME, organism-based; details: in vivo
Rattus norvegicus = species on record: Rattus norvegicus; assay: Unbound clearance in rat; format: ADME, organism-based; details: in vivo

Voltage-gated inwardly rectifying potassium channel KCNH2, sequence (Q12809 whole entry): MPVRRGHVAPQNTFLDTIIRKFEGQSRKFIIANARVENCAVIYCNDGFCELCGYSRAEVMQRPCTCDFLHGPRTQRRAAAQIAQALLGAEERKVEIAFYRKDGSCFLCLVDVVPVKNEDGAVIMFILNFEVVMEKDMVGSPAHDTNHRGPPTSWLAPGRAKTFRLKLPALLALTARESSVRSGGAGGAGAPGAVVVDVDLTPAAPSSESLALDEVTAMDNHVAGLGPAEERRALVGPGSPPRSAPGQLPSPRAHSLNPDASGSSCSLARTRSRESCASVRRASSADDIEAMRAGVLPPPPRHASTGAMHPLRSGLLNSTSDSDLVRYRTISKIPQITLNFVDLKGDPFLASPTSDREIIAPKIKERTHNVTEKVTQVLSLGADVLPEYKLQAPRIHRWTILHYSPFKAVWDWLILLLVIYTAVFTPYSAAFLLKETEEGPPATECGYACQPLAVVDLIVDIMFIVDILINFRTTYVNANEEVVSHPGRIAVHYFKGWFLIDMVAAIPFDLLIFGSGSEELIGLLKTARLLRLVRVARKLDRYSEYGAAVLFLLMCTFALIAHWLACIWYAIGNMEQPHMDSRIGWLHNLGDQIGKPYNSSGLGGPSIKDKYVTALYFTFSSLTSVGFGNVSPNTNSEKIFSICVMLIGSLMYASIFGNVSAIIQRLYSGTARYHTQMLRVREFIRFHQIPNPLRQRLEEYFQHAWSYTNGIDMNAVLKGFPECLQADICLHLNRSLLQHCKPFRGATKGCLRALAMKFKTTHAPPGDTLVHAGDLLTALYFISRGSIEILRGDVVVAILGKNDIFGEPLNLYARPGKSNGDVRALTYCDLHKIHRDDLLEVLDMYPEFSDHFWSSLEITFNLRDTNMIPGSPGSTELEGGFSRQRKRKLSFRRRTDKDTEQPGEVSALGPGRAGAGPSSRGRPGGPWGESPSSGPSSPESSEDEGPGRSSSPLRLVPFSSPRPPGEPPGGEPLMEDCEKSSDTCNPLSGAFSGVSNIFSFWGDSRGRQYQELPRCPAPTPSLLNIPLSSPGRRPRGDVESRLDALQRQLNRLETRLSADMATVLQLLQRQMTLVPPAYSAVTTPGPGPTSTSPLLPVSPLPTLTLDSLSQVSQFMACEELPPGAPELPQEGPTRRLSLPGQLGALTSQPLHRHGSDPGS

Row | EC50 (Hexokinase-4) [nM] | logD [1] | clearance [3] [mL/min/kg] | CL free (Rattus norvegicus) [mL/min/kg] | Structure (SMILES) | IC50 [2] [µM]
1 | 501 | 2.1 | – | – | CCOC[C@H](Oc1ncnc2c1cnn2-c1ncccc1Cl)C(=O)Nc1ccccn1 | > 100
2 | 158 | 2.3 | 54 | 280 | COCC[C@H](Oc1ncnc2c1cnn2-c1ncccc1Cl)C(=O)Nc1ccc(C)cn1 | –
3 | 398 | 3.5 | – | – | CC(C)OC[C@H](Oc1ncnc2c1cnn2-c1ncccc1Cl)C(=O)Nc1ccc(Cl)cn1 | 63.1
4 | 631 | 2 | – | – | CCOC[C@H](Oc1ncnc2c1cnn2-c1ncccc1Cl)C(=O)Nc1ccc(C#N)cn1 | 20
5 | 1260 | 1.8 | 50 | 320 | CCOC[C@H](Oc1ncnc2c1cnn2-c1ncccc1Cl)C(=O)Nc1cnc(C)cn1 | 15.8
6 | – | 3.6 | 37 | 500 | COCC[C@H](Oc1ncnc2c1cnn2-c1ccccc1Cl)C(=O)Nc1ccc(C)cn1 | 20
7 | 316 | 3.4 | 3.8 | – | COC[C@H](Oc1ncnc2c1cnn2-c1ccccc1Cl)C(=O)Nc1ccc(C)cn1 | 50.1
8 | 126 | 3.5 | – | – | CC(C)OC[C@H](Oc1ncnc2c1cnn2-c1ccccc1Cl)C(=O)Nc1ccccn1 | 63.1
9 | – | 2.7 | – | – | CC(C)OC[C@H](Oc1ncnc2c1cnn2-c1ncccc1Cl)C(=O)Nc1ccc(F)cn1 | 79.4
10 | 316 | 3.5 | – | – | CC(C)OC[C@H](Oc1ncnc2c1cnn2-c1ccccc1Cl)C(=O)Nc1ccc(C#N)cn1 | –
11 | 200 | 3.9 | – | – | CC(C)OC[C@H](Oc1ncnc2c1cnn2-c1ccccc1Cl)C(=O)Nc1ccc(F)cn1 | –
12 | 501 | 2.5 | – | – | CC(C)OC[C@H](Oc1ncnc2c1cnn2-c1ncccc1Cl)C(=O)Nc1ccccn1 | > 100
13 | 5010 | 1.4 | 4 | – | COC[C@H](Oc1ncnc2c1cnn2-c1ncccc1Cl)C(=O)Nc1cnc(C)cn1 | > 79.4
14 | – | 2.8 | 44 | 150 | CCOC[C@H](Oc1ncnc2c1cnn2-c1ccccc1Cl)C(=O)Nc1cnc(C)cn1 | –
15 | 126 | – | – | – | CC(C)OC[C@H](Oc1ncnc2c1cnn2-c1ccccc1Cl)C(=O)Nc1ccc(Cl)cn1 | –
16 | 126 | 3.9 | 71 | 1400 | Cc1ccc(NC(=O)[C@H](COC(C)C)Oc2ncnc3c2cnn3-c2ccccc2Cl)nc1 | 31.6
17 | 1580 | 2.3 | 9.3 | – | COC[C@H](Oc1ncnc2c1cnn2-c1ncccc1Cl)C(=O)Nc1ccc(C)cn1 | > 100
18 | 79.4 | 3.6 | 42 | 650 | Cc1cnc(NC(=O)[C@H](COC2CCC2)Oc2ncnc3c2cnn3-c2ccccc2Cl)cn1 | 12.6
19 | 631 | 2.5 | – | – | CC(C)OC[C@H](Oc1ncnc2c1cnn2-c1ncccc1Cl)C(=O)Nc1ccc(C#N)cn1 | 50.1
20 | 251 | 2.6 | 52 | 340 | CCOC[C@H](Oc1ncnc2c1cnn2-c1ncccc1Cl)C(=O)Nc1ccc(C)cn1 | –
21 | 158 | 3.2 | 136 | 1500 | Cc1ccc(NC(=O)[C@H](COC2CCC2)Oc2ncnc3c2cnn3-c2ncccc2Cl)nc1 | 39.8
22 | 158 | 2.6 | 22 | 260 | Cc1cnc(NC(=O)[C@H](COC2CCC2)Oc2ncnc3c2cnn3-c2ncccc2Cl)cn1 | –
23 | – | 2.4 | – | – | CCOC[C@H](Oc1ncnc2c1cnn2-c1ncccc1Cl)C(=O)Nc1ccc(F)cn1 | –
24 | – | 2.9 | 62 | 390 | Cc1ccc(NC(=O)[C@H](COC(C)C)Oc2ncnc3c2cnn3-c2ncccc2Cl)nc1 | > 100
25 | 316 | 2.1 | 61 | 130 | Cc1cnc(NC(=O)[C@H](COC(C)C)Oc2ncnc3c2cnn3-c2ccccc2Cl)cn1 | > 100
26 | 316 | 3 | – | – | CCOC[C@H](Oc1ncnc2c1cnn2-c1ncccc1Cl)C(=O)Nc1ccc(Cl)cn1 | 10
